Legend:
Assay type in all cases: cell-based, human
CDK4 3′UTR = test: CDK4-Luciferase (pMirtarget CDK4 3′UTR) reporter assay in stable HCT-116 cells; conditions: 48 hours; for direct binding to the 3′UTR region of CDK4: pMirtarget-CDK4-Luciferase vector, HCT-116, 50 nM mimic
Protocol: (§1) Transfection of miRNA mimics, siRNA and plasmid constructs: All miRNA mimics and siRNA transfections were performed by reverse transfection using Lipofectamine RNAiMAX (Life technologies, Grand Island, NY). 80 nM siRNA was used in all experiments for HT-29, RKO and SW-480 cell lines. 40 nM siRNA was used for HCT-116 cells. miRNA mimics were transfected at concentrations of either 25 nM, 50 nM, or 100 nM, as indicated in respective assays. CDK4-Luciferase vector was transfected in HCT-116 cells using Lipofectamine 3000 (Life technologies, Grand Island, NY) and stable cells were selected using G418 antibiotic (500 μg/mL).
Luciferase assays: CDK4-Luciferase containing stable HCT-116 cells were reverse-transfected with either scramble duplex or 50 nM miRNA mimics. Luciferase signal was detected 48 hours post-transfection and Relative Luciferase Units (RLU) were calculated by normalizing luciferase signal per μg of protein per assay well. All transfections were performed in triplicates and reported as RLU units±SEM.
Referring in particular to FIGS. 2A, 2B, and 2C, data is presented showing that miR-6883-5p and miR-149* negatively regulate expression of […] and CDK6 in CRC cell lines. Referring to FIG. 2A, CDK4 and CDK6 protein levels were detected in a panel of CRC cell lines reverse transfected with 50 nM of miRNA mimics or scrambled duplex (SCR) for 72 hours. Referring to FIG. 2B, qRT-PCR was performed for CDK4 and CDK6 in SCR or miRNA mimics transfected in CRC cell lines (50 nM, 72 hours, n=3). *, ** and *** indicate p-value relative to SCR expression. Referring to FIG. 2C, HCT-116 cells stably selected with CDK4-Luciferase construct were reverse transfected with SCR or 50 nM of the indicated miRNA mimics for 48 hours. Measured luciferase activities were normalized per μg of protein for indicated samples and reported as RLU±SEM (n=3). * indicates p-value relative SCR RLU.

CDK6 = CDK6 protein (western blot) and RNA (qRT-PCR) expression in CRC cell lines transfected with miRNA mimics; conditions: 50 nM miRNA mimic vs scrambled duplex, 72 hours; HCT-116, RKO, HT-29, SW-480
Protocol: as §1
(§2) Quantitative RT-PCR (qRT-PCR): Total RNA, which includes miRNA, was isolated using the Quick-RNA™ MiniPrep kit (Zymo Research, Irvine, CA). One μg of total RNA from each sample was subjected to cDNA synthesis using SuperScript® III Reverse Transcriptase kit (Life Technologies, Grand Island, NY), for detection of CDK4, CDK6, and housekeeping genes. […] The relative expression of the reported genes and miRNAs was determined using real-time PCR performed on Applied Biosystems 7900HT Fast Real-Time PCR system. […] Each cDNA sample was amplified using Power SYBR Green (Applied Biosystems, CA) and miRNA components were quantified using TaqMan® Universal Master Mix II, no UNG (Applied Biosystems, CA). […]

[1] = tested on: panel of CRC cell lines (HCT-116, RKO, HT-29, SW-480); test: miRNA-Irinotecan synergy by cell viability (CellTiter-Glo); conditions: 25 nM (HCT-116) or 50 nM mimic, Irinotecan added 16 hours post-transfection, read 72 hours; all four cell lines
Protocol: (§3) Cell Proliferation assays: Five thousand to ten thousand cells were reverse transfected with either scramble duplex or miRNA to a net concentration of 50 nM and plated in 96-well plate. Cell viability was measured 72 hours post-transfection using CellTiter-Glo® Luminescent Cell Viability Assay (Promega). Percent cell viability was calculated by normalizing the luminescence signal to scramble duplex wells. All transfections were performed in triplicates and reported as % Viability±SEM.
(§4) A panel of CRC cell lines was reverse transfected with 25 nM (HCT-116) or 50 nM of SCR or indicated miRNA mimics. At 16 hours post-transfection, Irinotecan (see, FIG. 5A) or 5-FU (see, FIG. 5B) at indicated doses were added. Synergy of miRNA-drug was measured by cell viability 72 hours post-transfection using CellTiter-Glo assay. The effect on apoptosis and cell cycle markers with miRNA alone or combination were assessed using 50 nM of miRNA mimic and […] (HT-29 and SW-480) or 2.5 μM Irinotecan (HCT-116 and RKO) by western blot. For 5-FU, 384 μM (HT-29 and SW-480) and 25 μM (HCT-116 and RKO) were used. Representative western blots are shown in FIG. 5C and FIG. 5D, respectively.

[2] = tested on: p53 mutant cell lines HT-29 and SW-480; test: miRNA-5-FU combination by cell viability (CellTiter-Glo); conditions: 50 nM mimic, 5-FU added 16 hours post-transfection, read 72 hours
Protocol: as §3, §4

PARP = test: Western blot of markers of apoptosis (PARP cleavage); conditions: RKO and SW-480 cells; 100 nM miRNA mimics, 72 hours
Protocol: Referring to FIG. 3A, a panel of CRC cell lines was reverse transfected with 50 nM SCR or 50 nM of indicated miRNA mimics. […] All four CRC cell lines were reverse transfected with 100 nM SCR or indicated miRNA mimics. The effects on cell cycle markers (see, FIG. 3C) and markers of apoptosis (see, FIG. 3D) were evaluated by western blot 72 hours post-transfection. Representative western blots are shown (n=3).

phosphorylated Rb (S795) = test: Western blot of cell cycle markers; conditions: 100 nM miRNA mimics, 72 hours post-transfection; all four cell lines
Protocol: (§5) Western blot: Western blotting was performed by routine and well known procedures. The following antibodies were used: CDK4 (Santa Cruz Biotechnology, sc-260), CDK6 (CST, D4S8S), CDK1 (Santa Cruz Biotechnology, sc-54), Cyclin-D1 (CST, 92G2), p-Rb (S795) (CST, 9301S), Total Rb, BCLxL (CST, 2764S), PARP (CST, 9542), p53-DO1 (Santa Cruz Biotechnology, sc-126), p21 (Calbiochem, OP64), and β-actin (Sigma, A5441).
(§6) Referring in particular to FIGS. 3A, 3B, 3C, 3D, and 3E, data is presented showing that restoring expression of miR-6883-5p and miR-149* results in G1-arrest and cell death in CRC cell lines. […] The effects on cell viability were measured 72 hours post-transfection using CellTiter-Glo assay. Referring to FIG. 3B, the effects of the miRNA mimics on long-term cell proliferation of CRC cell lines was assessed by colony formation assays performed in 6-well plates. […] The effects on cell cycle markers (see, FIG. 3C) and markers of apoptosis (see, FIG. 3D) were evaluated by western blot 72 hours post-transfection. […] Referring to FIG. 3E, cell cycle profiles and apoptotic cells were assessed in three CRC cell lines by reverse transfecting with SCR or 50 nM (HCT-116 and HT-29) or 100 nM (RKO) miRNA mimics. 72 hours post-transfection, cells were fixed, stained with PI, and analyzed by FACS. […]

XIAP = test: Western blot of XIAP; conditions: 100 nM miRNA mimic, 72 hours
CDK4 = CDK4 protein (western blot) and RNA (qRT-PCR) expression in CRC cell lines transfected with miRNA mimics; conditions: 50 nM miRNA mimic vs scrambled duplex, 72 hours; HCT-116, RKO, HT-29, SW-480
Protocol: as §1, §2

BCLXL = test: Western blot of BCLXL; conditions: 100 nM miRNA mimic, 72 hours
Protocol: as §5, §6

p21 = test: Western blot of p21 (cell cycle arrest); conditions: 50 nM mimic; 5-FU 384 μM (HT-29 and SW-480) or 25 μM (HCT-116 and RKO)
Protocol: as §5, §4

| Molecule | luciferase signal (CDK4 3′UTR; HCT-116 CDK4-Luciferase stable cells, 50 nM mimic, compared to miR-206 and miR-149*) | direct binding to the 3′UTR region of CDK4 (CDK4 3′UTR) | CDK6 protein and RNA level (CDK6) | synergy with Irinotecan (cell viability) [1] | sensitivity to 5-FU (cell viability) [2] | apoptosis (PARP-cleavage) (PARP) | levels of phosphorylated Rb (S795) (phosphorylated Rb (S795)) | XIAP level (XIAP) | CDK4 protein and RNA level (CDK4) | BCLXL level (BCLXL) | cell cycle arrest as seen by p21 levels, single agent (p21) |
| --- | --- | --- | --- | --- | --- | --- | --- | --- | --- | --- | --- |
| hsa-miR-6883-5p (AGGGAGGGUGUGGUAUGGAUGU; called a modified oligonucleotide, chemistry not given here; listed as Homo sapiens) [miRNA mimic purchased from Sigma-Aldrich (HMI2616)] | significantly reduced luciferase signal | directly bind to the 3′UTR region of CDK4 | targeted both CDK4 and CDK6 at both the protein and RNA level | synergized with Irinotecan | increased the sensitivity of p53 mutant cell lines HT-29 and SW-480 to 5-FU | most potent in inducing apoptosis | reduced levels of phosphorylated Rb (S795) | downregulated XIAP and BCLXL | targeted both CDK4 and CDK6 at both the protein and RNA level | downregulated XIAP and BCLXL |  |
| O=c1[nH]cc(F)c(=O)[nH]1 [5-FU, 5-fluorouracil, reference compound] |  |  |  |  |  |  |  |  |  |  | caused cell cycle arrest |
| hsa-miR-149-3p [miR-149*] |  | directly bind to the 3′UTR region of CDK4 | more potent in reducing levels of CDK6 | synergized with Irinotecan | increased the sensitivity of p53 mutant cell lines HT-29 and SW-480 to 5-FU |  | reduced levels of phosphorylated Rb (S795) |  | no impact on CDK4 |  | caused cell cycle arrest |
